In data set [1] the test system is human spermatozoa. Description: Cytotoxicity of bound cholesterol on semen in culture (motility evaluations). Format: cell-based. The following applies: culture plates coated with 100 µl sterol solution; 1, 2, 4 and 8 hours of incubation. As to the method: In this experiment, liquefied semen samples were exposed to culture plates that had been coated with 100 µl of the sterol solution.

Data set [2] relates to human red blood cells. The following applies: 3.3M (30%) glycerol; over a 2-3 log range in cooling rates; cited from earlier work.

Regarding `CC(C)CCC[C@@H](C)[C@H]1CC[C@H]2[C@@H]3CC=C4C[C@@H](O)CC[C@]4(C)[C@H]3CC[C@]12C` [bound cholesterol, cholesterol], in data set [1], the “cytotoxic effect (motility evaluations)” value is “no significant cytotoxic effect”.
Turning to `OCC(O)CO` [glycerol], the survival result in data set [2] was “around 90%”.

These data come from patent US10271543B2, “Systems and methods for cryopreservation of cells” (Cook General Biotechnology LLC, priority 2006, dated 2019).
